Literature values as cited in patent US20120071320A1, “LIQUID AGRICULTURAL FORMULATIONS OF IMPROVED STABILITY” (priority 2010, published 2012).

Conditions: aqueous buffer solutions, both acidic and basic conditions

For `COC(=O)c1sccc1S(=O)(=O)NC(=O)Nc1nc(C)nc(OC)n1` [thifensulfuron methyl], the hydrolysis rate is given as “relatively fast”.
